From patent US10864212B2, “Compositions and methods for treating retinal degradation” (University of Kentucky Research Foundation, priority 2013, dated 2020)
“Also recorded” adds a separate entry of the source.

How the values were obtained:
Caspase-1 [1] = assay: Western blot of Caspase-1 activation in primary human RPE cells transfected with Alu RNA; type: cell-based; settings: for Caspase-1 activation / cleavage (p20) induced by Alu RNA: concentration not given; for Caspase-1 maturation caused by Alu RNA: 24 hours after Alu administration, 50-100 uM, FIG. 7
Procedure: The bottom row is a vinculin loading control. […]
FIG. 7 is a Western blot showing that Alu RNA causes Caspase-1 maturation in primary human RPE cells at 24 hours after Alu administration (top, middle lane, lower band), which is blocked with co-treatment with azidothymidine (AZT), cordycepin, and abacavir (ABC) (50-100 uM; lanes 3-8 from left). The loading control vinculin is shown on the bottom.
FIG. 21 is a Western blot of Caspase-1 activation (p20 subunit) in primary human RPE cells transfected with Alu RNA±me-d4T.
FIG. 35 is a Western blot of Caspase-1 activation in human RPE cells transfected with Alu RNA±NRTIs (3TC, AZT, ABC).
The bottom row in FIG. 5 is a vinculin loading control. […]
Next, FIG. 7 provides evidence of AZT, cordycepin, and abacavir inhibition of inflammasome activation by Alu RNA. Indeed, Alu RNA causes NLRP3 inflammasome activation, which is marked by processing of the enzyme Caspase 1. FIG. 7 is a Western blot showing that Alu RNA causes Caspase-1 maturation in primary human RPE cells at 24 hours after Alu administration (top, lane 2, lower band), which is blocked with co-treatment with azidothymidine (AZT), cordycepin, and abacavir (ABC) (50-100 uM; Lanes 3-8). Again, the loading control vinculin is shown on the bottom.

[2] = tested on: GFP-expressing lentivirus; assay: Replication of a GFP-expressing lentivirus in HeLa cells; type: cell-based; settings: FIG. 22
Excerpt: The present disclosure further provides the results of additional experiments in FIG. 21-FIG. 23.

RPE degeneration = RPE degeneration in mice after sub-retinal injection of a plasmid expressing Alu RNA, systemic drug administration; type: in vivo, mouse
Excerpt: FIG. 24, top row, provides flat mounts stained for zonula occludens-1 (ZO-1; red), bottom row. Degeneration is outlined if FIG. 24 by blue arrowheads. Representative images of n=4 are shown.
FIG. 36 and FIG. 37 include fundus photographs: top row; flat mounts stained for zonula occludens-1 (ZO-1; red), bottom row. Degeneration is outlined by blue arrowheads. Scale bars, 50 μm.

human P2X7 receptor = target: T1, human P2X7 receptor (Homo sapiens, UniProt Q99572); assay: bzATP-induced YO-PRO-1 dye uptake in HEK293 cells stably expressing the human P2X7 receptor; type: cell-based
T1 construct: expressed in transfected cells
T1 sequence (Q99572 1-595): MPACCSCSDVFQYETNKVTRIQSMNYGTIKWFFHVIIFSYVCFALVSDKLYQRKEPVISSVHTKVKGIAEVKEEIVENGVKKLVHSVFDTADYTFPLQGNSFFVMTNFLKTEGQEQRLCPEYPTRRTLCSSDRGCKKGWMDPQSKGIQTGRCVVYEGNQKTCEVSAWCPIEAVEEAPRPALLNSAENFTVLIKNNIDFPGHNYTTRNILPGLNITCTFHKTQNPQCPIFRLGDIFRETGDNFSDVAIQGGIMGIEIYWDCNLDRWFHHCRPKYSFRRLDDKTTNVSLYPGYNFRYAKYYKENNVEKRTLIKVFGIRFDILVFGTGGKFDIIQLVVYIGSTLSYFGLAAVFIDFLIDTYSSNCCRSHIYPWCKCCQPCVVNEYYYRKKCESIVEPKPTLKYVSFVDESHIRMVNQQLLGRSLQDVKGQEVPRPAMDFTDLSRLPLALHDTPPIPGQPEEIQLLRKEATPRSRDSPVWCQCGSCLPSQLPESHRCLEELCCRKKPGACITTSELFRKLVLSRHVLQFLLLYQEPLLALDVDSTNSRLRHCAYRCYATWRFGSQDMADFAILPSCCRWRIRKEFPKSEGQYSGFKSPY
Excerpt: Finally, P2X7 activation is associated with the formation of a large pore that is permeable to molecules of up to ˜1000 Da (Adinolfi et al., 2005; Cheewatrakoolpong et al., 2005; Surprenant et al., 1996).

Caspase-1 [3] = assay: LPS/ATP-induced Caspase-1 activation in mouse bone marrow-derived macrophages (Western blot); type: cell-based; settings: mouse bone marrow-derived macrophages, supernatants; 100 uM; FIG. 9
Excerpt: (§1) To produce FIG. 9, cell culture supernatants were collected after (i) no treatment, (ii) LPS treatment, or (iii) LPS/ATP treatment of mouse bone marrow-derived macrophages and run on Western blotting probing with antibodies for Caspase-1 and IL-18.
Further, the present inventors also tested whether NRTIs blocked inflammasome activation by LPS/ATP, which is not known to signal via reverse transcriptase (Mariathasan et al., 2004; Mariathasan et al., 2006; Martinon et al., 2002).
(§2) FIGS. 38-41 illustrate that NRTIs block LPS/ATP-induced inflammasome activation. […] Representative images of n=3-4 experiments are provided in each of FIGS. 38-41.

IL-1 beta [4] = assay: MSU-induced IL-1 beta secretion from PMA-differentiated THP-1 monocytes (ELISA); type: cell-based, human; settings: co-administration at 25-1000 uM, FIG. 11, 12
Excerpt: Human THP-1 monocytes were differentiated into macrophages with PMA.
To illustrate this, human THP-1 monocytes were differentiated into macrophages with PMA. Treatment with MSU increased IL-1 beta secretion compared to non-treated cells.

IL-18 = assay: LPS/ATP-induced IL-18 maturation in mouse bone marrow-derived macrophages (Western blot); type: cell-based; settings: supernatants, 100 uM, FIG. 9
Excerpt: as §1

[5] = tested on: Raji TK^+ and Raji TK^− cells; assay: Phosphorylation of AZT to AZT-triphosphate in Raji TK+ and TK- cells (LC-MS); type: in vitro ADME; settings: FIG. 40, 50
Excerpt: FIG. 50 is a standard curve of AZT-TP standards (black circle).
(§3) To determine whether LPS/ATP-induced inflammasome activation can be inhibited without RT inhibition, the present inventors utilized thymidine kinase-deficient (Raji/TK^−) and -expressing (Raji/TK^+) cells (Balzarini et al., 1989). After addition of AZT, […], but not TK^− cells, the present inventors produced AZT-triphosphate (AZT-TP), the AZT metabolite required for RT inhibition (FIG. 40; FIG. 46, FIG. 47, FIG. 48, FIG. 49, FIG. 50).
FIG. 50 is a standard curve of AZT-TP standards (black circle). […] FIG. 50 is representative of two experiments.

IL-1 beta [6] = assay: LPS/ATP-induced IL-1 beta activation in Raji TK- and TK+ cells (Western blot of cell lysates); type: cell-based; settings: FIG. 41
Excerpt: as §3, §2

COC[C@@H]1C=C[C@H](n2cc(C)c(=O)[nH]c2=O)O1 [me-d4T, 5′-OCH3-d4T]
Caspase-1 activation / cleavage (p20) induced by Alu RNA (Caspase-1 [1]; FIG. 21, 34, 35, 51-53): blocks Caspase-1 activation in human RPE cells | Caspase-1 activation / cleavage (p20) induced by Alu RNA (Caspase-1 [1]; FIG. 21, 34, 35, 51-53, listed as 5′-methoxy-d4T): block Caspase 1 activation by Alu RNA | Replication of a GFP-expressing lentivirus ([2]; HeLa cells): does not block lentivirus replication | Reverse transcriptase inhibition ([2]; confirmed by lentivirus replication): does not inhibit reverse transcriptase | Alu-induced RPE degeneration (RPE degeneration; me-d4T intraperitoneal injection, n=4, FIG. 24): prevents Alu-induced RPE degeneration in mice

Clc1cccc(-c2nnnn2Cc2cccnc2)c1Cl [A438079]
P2X7-mediated YO-PRO-1 dye uptake (fluorescence) induced by bzATP (human P2X7 receptor; bzATP 100 μM, 64 μM for both drugs, p<0.05, n=12, FIG. 43): inhibited

Nc1ncnc2c1ncn2[C@@H]1O[C@H](CO)C[C@H]1O [cordycepin]
Caspase-1 maturation caused by Alu RNA (Caspase-1 [1]): blocked | Caspase-1 activation (active p20 band) induced by LPS/ATP (Caspase-1 [3]): inhibit | IL-1 beta secretion induced by MSU (IL-1 beta [4]): did not significantly affect IL-1beta secretion | IL-18 maturation induced by LPS/ATP (IL-18): inhibit

Clc1ccc(C(c2ccc(Cl)cc2)n2cc[n+](CC(OCc3ccc(Cl)cc3Cl)c3ccc(Cl)cc3Cl)c2)cc1 (stereo not shown) [calmidazolium]
Caspase-1 activation / cleavage (p20) induced by Alu RNA (Caspase-1 [1]; FIG. 21, 34, 35, 51-53): not inhibited

Cc1cn([C@H]2C[C@H](N=[N+]=[N-])[C@@H](CO)O2)c(=O)[nH]c1=O [AZT, 3′-azido-2′,3′-dideoxythymidine]
Phosphorylation of AZT to AZT-triphosphate (AZT-TP) ([5]; Raji TK^+ cells): produced AZT-TP; also recorded: phosphorylate AZT to AZT-triphosphate (AZT-TP) | Phosphorylation of AZT to AZT-triphosphate (AZT-TP) ([5]; Raji TK^− (thymidine kinase-deficient) cells): is not phosphorylated; also recorded: AZT was not phosphorylated; also recorded: AZT-TP was not detectable; also recorded: but not Raji TK^− cells | Caspase-1 maturation caused by Alu RNA (Caspase-1 [1]): blocked | Caspase-1 activation / cleavage (p20) induced by Alu RNA (Caspase-1 [1]; FIG. 21, 34, 35, 51-53): block Caspase 1 activation by Alu RNA; also recorded: block Caspase-1 cleavage induced by Alu RNA | P2X7-dependent uptake of YO-PRO1 after addition of bzATP (human P2X7 receptor; human P2X7-overexpressing HEK293 stable cell line, concentration not given): inhibited P2X7-dependent uptake of the fluorescent dye YO-PRO1 | RPE degeneration caused by pAlu (RPE degeneration; intraperitoneal administration of AZT, FIG. 37): prevent RPE degeneration; also recorded: prevented | IL-1 beta activation by LPS/ATP (IL-1 beta [6]; Raji TK^+ cells): blocks IL-1 beta activation | IL-1 beta activation by LPS/ATP (IL-1 beta [6]; Raji TK^− cells): still blocks LPS/ATP-induced interleukin-1 beta secretion; also recorded: still inhibited LPS/ATP-induced interleukin-1 beta maturation; also recorded: blocks IL-1 beta activation
